From PubChem BioAssay (NCI)
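Briefly, cells in 96-well plates were exposed to five compound concentrations for 48 h, and endpoints were estimated by linear interpolation. Here, GI50 denotes the concentration required for 50% inhibition of growth. TGI is the concentration that stops growth completely.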

What was measured:
Experiment in all cases: growth of human tumour cells (NCI), 48 h
[1] = test system: M14 melanoma
[2] = test system: 786-0 renal
[3] = test system: KM12 colon
[4] = test system: U251 CNS
[5] = test system: MDA-MB-435
[6] = test system: LOX IMVI melanoma
[7] = test system: UACC-62 melanoma
[8] = test system: T-47D breast
[9] = test system: COLO 205 colon
[10] = test system: HL-60(TB) leukemia

| SMILES | GI50 [1] | TGI [1] | GI50 [2] | TGI [2] | GI50 [3] | TGI [3] | GI50 [4] | TGI [4] | GI50 [5] | TGI [5] | GI50 [6] | TGI [6] | GI50 [7] | TGI [7] | GI50 [8] | TGI [8] | GI50 [9] | TGI [9] | GI50 [10] | TGI [10] |
| --- | --- | --- | --- | --- | --- | --- | --- | --- | --- | --- | --- | --- | --- | --- | --- | --- | --- | --- | --- | --- |
| COC(=O)[C@]12CC[C@@H](C)[C@H](C)[C@@H]1C1=CC[C@@H]3[C@@]4(C)C[C@@H](OC(=O)/C=C/c5ccccc5)[C@H](O)[C@@](C)(CO)[C@@H]4[C@H](O)C[C@@]3(C)[C@]1(C)CC2 | 2.65 µM | 8.58 µM | 1.87 µM | 3.82 µM | 2050 nM | 5.36 µM | 1.86 µM | 4.18 µM | 2.44 µM | 6.47 µM | 1.69 µM | 3.1 µM | 2.83 µM | 11.4 µM | 2.34 µM | 10.9 µM | 1.91 µM | 4.12 µM | 2.63 µM | 6.51 µM |
| N#CC1=C(N)NC(=S)NC12Nc1ccccc1S2 (stereo not given) | 40.1 µM | > 100 µM | > 100 µM | > 100 µM | 24900 nM | 75.5 µM | 21.4 µM | 79.8 µM | 19.2 µM | 47.6 µM | 17 µM | 44.7 µM | 19.7 µM | 55.8 µM | 29.9 µM | > 100 µM | 24.8 µM | 82.6 µM | 33.6 µM | 79.2 µM |
| Cn1cc(-c2nc(-c3c[nH]c4ncccc34)cs2)c2ccccc21 | 19.3 µM | > 100 µM | 91.7 µM | > 100 µM | 975 nM | 26.7 µM | 24.8 µM | > 100 µM | 3.84 µM | 30 µM | 24.5 µM | > 100 µM | 30.5 µM | > 100 µM | 0.414 µM | 26.9 µM | 24.1 µM | > 100 µM | 10.7 µM | > 100 µM |
| COc1ccc(/C=C2\COc3ccc(O)c(O)c3C2=O)c(OC)c1OC | 2.39 µM | 8.93 µM | 2.95 µM | 10.7 µM | 2890 nM | 10.8 µM | 2.66 µM | 11.2 µM | 2.21 µM | 6.57 µM | 1.78 µM | 3.49 µM | 1.88 µM | 3.88 µM | 2.58 µM | 9.08 µM | 2.78 µM | 10 µM | 2.4 µM | 6.71 µM |
| CC(C)[C@@](O)(c1ccc2cc(OC(F)F)c(OC(F)F)cc2c1)c1cn[nH]n1 | 16 µM | 33.4 µM | 17.2 µM | 34.1 µM | 17500 nM | 39.2 µM | 17.4 µM | 34.7 µM | 16.4 µM | 33.3 µM | 15.8 µM | 29.2 µM | 15.1 µM | 31 µM | 13.4 µM | 53.1 µM | 17.2 µM | 35.1 µM | 21.9 µM | 66.6 µM |
| Cn1cc(C2=C(c3cn(-c4ccccc4)c4ccccc34)C(=O)NC2=O)c2ccccc21 | 13 µM | > 25 µM | > 25 µM | > 25 µM | 8120 nM | > 25 µM | 11.5 µM | > 25 µM | 6.01 µM | > 20.5 µM | 19.2 µM | > 25 µM | 16.3 µM | > 25 µM | 7.53 µM | > 25 µM | 11.6 µM | > 25 µM | 8.91 µM | > 25 µM |
| O=C(C=P(c1ccccc1)(c1ccccc1)c1ccccc1)CCl | 1.36 µM | 3.89 µM | 1.61 µM | 3.56 µM | 1940 nM | 5.09 µM | 1.58 µM | 3.7 µM | 0.894 µM | 2.34 µM | 0.353 µM | 1.04 µM | 1.14 µM | 2.88 µM | 1.04 µM | 2.99 µM | 1.53 µM | 3.66 µM | 1.31 µM | 6.12 µM |
| O=C1CC(c2ccccc2)Cc2nc3ccc(Br)cc3cc21 (stereo not given) | 0.0486 µM | 12.4 µM | 0.667 µM | > 100 µM | 368 nM | > 37.7 µM | 0.514 µM | > 100 µM | 0.0328 µM | 0.126 µM | 0.746 µM | > 59.8 µM | 0.26 µM | > 100 µM | 5.68 µM | > 100 µM | 0.281 µM | 1.8 µM | 0.235 µM | 0.672 µM |
| NC(=S)N/N=C1\c2ccccc2-c2c(F)c(F)c(F)c(F)c21 | 4.53 µM | 15.6 µM | 6.56 µM | 20 µM | 5880 nM | 16.3 µM | 3.16 µM | 10.2 µM | 7.44 µM | 20.6 µM | 2.34 µM | 7.64 µM | 8.97 µM | 24.6 µM | 1.91 µM | 5.08 µM | 8.01 µM | 19.6 µM | 3.58 µM | 16 µM |
| Cn1c(=O)nc2n(-c3ccc(Cl)cc3)c3cc(Cl)ccc3nc-2c1=O |  | 4.21 µM |  | 23.7 µM |  | 25.6 µM |  | 33 µM |  | 3.14 µM |  | 5.84 µM |  | 3.57 µM |  | 2.03 µM |  | 5.14 µM |  | 5.66 µM |
| CCCCNS(=O)(=O)c1n[nH]c(=O)[nH]c1=O |  | > 100 µM |  | > 100 µM |  | > 100 µM |  | > 100 µM |  | > 100 µM |  | > 100 µM |  | > 100 µM |  | > 100 µM |  | > 100 µM |  | > 100 µM |
| Oc1ccc2c3c1OC1c4[nH]ncc4C[C@H]4[C@@H](C2)N(CC2CC2)CC[C@]314 (stereo not given in full) |  | > 100 µM |  | > 100 µM |  | > 100 µM |  | > 100 µM |  | > 100 µM |  | > 100 µM |  | > 100 µM |  | > 100 µM |  | > 100 µM |  | > 100 µM |
| Cn1c2c(c3ccccc31)CCN(CCCCN1CCN(c3ccccc3)CC1)C2=O |  | 16.9 µM |  | > 46.4 µM |  | > 89.9 µM |  | > 84.2 µM |  | 36.7 µM |  | 32.1 µM |  | > 68.7 µM |  | > 100 µM |  | 26.2 µM |  | > 81.3 µM |
| Cc1cnc2oc3ccc(O)cc3c2c1-c1ccccc1 | > 100 µM | > 100 µM | 36.3 µM | > 100 µM | > 100000 nM | > 100 µM | 17.9 µM | 51 µM | > 100 µM | > 100 µM | 21.6 µM | > 100 µM | 6.02 µM | 50.8 µM | 3.63 µM | > 100 µM | > 100 µM | > 100 µM | > 100 µM | > 100 µM |
